Assay results published in US10443078B2, “Pichia kudriavzevii NG7 microorganism and uses thereof” (Korea Research Institute of Bioscience and Biotechnology, priority 2014, dated 2019).
Numbered stars: 1 amine (or outer) side, 2 acyl side, 3 side chain; on linkers, the order of the positions; unused ones are H or OH. Square brackets hold non-standard residues; d marks the D form. Peptide text beside a SMILES is read from it. X1 = CC[C@@H](C)[C@@H](O[*:1])C(=O)[*:2]; NMeVal(β-OH) = CN[C@H](C(=O)O)C(C)(C)O; NMeF = CN[C@@H](Cc1ccccc1)C(=O)O; aIle = CC[C@@H](C)[C@H](N)C(=O)O; NMeV = CN[C@H](C(=O)O)C(C)C

Assays:
Assay in all cases: Antibiotic resistance of isolated microorganisms on YPD solid medium
Settings in all cases: zeocin, G418, nourseothricin, hygromycin 100 μg/mL, cycloheximide 1 μg/mL, aureobasidin A 0.1 μg/mL, 30° C.
2-2 microorganism = assay type: cell-based, Pichia kudriavzevii
Procedure: (§1) The antibiotic resistance of the selected three different kinds of microorganisms to various antibiotics was examined. The antibiotics used were zeocin (100 μg/mL), G418 (100 μg/mL), cycloheximide (1 μg/mL), aureobasidin A (0.1 μg/mL), nourseothricin (100 μg/mL), and hygromycin (100 μg/mL). Each of the cell cultures of the isolated microorganisms was dotted on YPD solid medium (yeast extract (1%), peptone (2%), glucose (2%), and agar (2%)) and cultured at 30° C.

NG7 microorganism = assay type: cell-based, Pichia kudriavzevii
Procedure: as §1

NG1 microorganism = assay type: cell-based, Issatchenkia occidentalis
Procedure: as §1

`C[C@@H]1C[C@@H]([C@H](O)CC2CC(=O)NC(=O)C2)C(=O)[C@@H](C)C1` [Cycloheximide, cycloheximide] was tested, and the “Resistance of microorganism 2-2 to antibiotic” value (2-2 microorganism) was “+”, the “Resistance of microorganism 2-2 to antibiotic” value (2-2 microorganism; listed as cycloheximide) was “resistance” and the “Resistance of microorganism NG7 to antibiotic” value (shortened to “Resistance of microorganism NG7”) (NG7 microorganism) was “+”. The “Resistance of microorganism NG7” value (NG7 microorganism; listed as cycloheximide) was “resistance”, the “Resistance of microorganism NG1 to antibiotic” value (shortened to “Resistance of microorganism NG1”) (NG1 microorganism) was “+” and the “Resistance of microorganism NG1” value (NG1 microorganism; listed as cycloheximide) was “resistance”.
With nourseothricin the “Resistance of microorganism 2-2 to antibiotic” value (2-2 microorganism) was “−”, the “Resistance of microorganism 2-2 to antibiotic” value (2-2 microorganism; listed as nourseothricin) was “no resistance” and the “Resistance of microorganism NG7” value (NG7 microorganism) was “−”. For the same compound, the “Resistance of microorganism NG7” value (NG7 microorganism; listed as nourseothricin) was “no resistance”, the “Resistance of microorganism NG1” value (NG1 microorganism) was “−” and the “Resistance of microorganism NG1” value (NG1 microorganism; listed as nourseothricin) was “no resistance”.
With `CN[C@@H]1[C@@H](O)[C@@H](O[C@@H]2[C@@H](O)[C@H](O[C@H]3O[C@H]([C@@H](C)O)[C@@H](O)[C@H](O)[C@H]3N)[C@@H](N)C[C@H]2N)OC[C@]1(C)O` [G418] the “Resistance of microorganism 2-2 to antibiotic” value (2-2 microorganism) was “resistance and +”, the “Resistance of microorganism NG7” value (NG7 microorganism) was “resistance and +” and the “Resistance of microorganism NG1” value (NG1 microorganism) was “resistance and +”.
`CC[C@@H](C)[C@@H]1NC(=O)[C@@H]2CCCN2C(=O)[C@H](Cc2ccccc2)N(C)C(=O)[C@H](Cc2ccccc2)NC(=O)[C@H](C(C)C)N(C)C(=O)[C@@H]([C@H](C)CC)OC(=O)[C@H](C(C)(C)O)N(C)C(=O)[C@H](CC(C)C)NC(=O)[C@H](C(C)C)N(C)C1=O` [Aureobasidin A, aureobasidin A] (cyclo(F[NMeF]P[aIle][NMeV]L[NMeVal(β-OH)][X1][NMeV])) was tested, and the “Resistance of microorganism 2-2 to antibiotic” value (2-2 microorganism) was “−”, the “Resistance of microorganism 2-2 to antibiotic” value (2-2 microorganism; listed as aureobasidin A) was “no resistance” and the “Resistance of microorganism NG7” value (NG7 microorganism) was “−”. For the same compound, the “Resistance of microorganism NG7” value (NG7 microorganism; listed as aureobasidin A) was “no resistance”, the “Resistance of microorganism NG1” value (NG1 microorganism) was “−” and the “Resistance of microorganism NG1” value (NG1 microorganism; listed as aureobasidin A) was “no resistance”.
`Cc1c(N)nc([C@H](CC(N)=O)NC[C@H](N)C(N)=O)nc1C(=O)N[C@H](C(=O)N[C@H](C)[C@@H](O)[C@H](C)C(=O)N[C@H](C(=O)NCCC1=N[C@@H](c2nc(C(=O)NCCCCN=C(N)N)cs2)CS1)[C@@H](C)O)[C@@H](O[C@@H]1O[C@@H](CO)[C@@H](O)[C@H](O)[C@@H]1O[C@H]1O[C@H](CO)[C@@H](O)[C@H](OC(N)=O)[C@@H]1O)c1cnc[nH]1` [Zeocin, zeocin] was tested, and the “Resistance of microorganism 2-2 to antibiotic” value (2-2 microorganism) was “+”, the “Resistance of microorganism 2-2 to antibiotic” value (2-2 microorganism; listed as zeocin) was “resistance” and the “Resistance of microorganism NG7” value (NG7 microorganism) was “+”. For the same compound, the “Resistance of microorganism NG7” value (NG7 microorganism; listed as zeocin) was “resistance”, the “Resistance of microorganism NG1” value (NG1 microorganism) was “+” and the “Resistance of microorganism NG1” value (NG1 microorganism; listed as zeocin) was “resistance”.
